This is an account of results in ChEMBL document CHEMBL1150876, “Purpurediolin and purpurenin, two new cytotoxic adjacent bis-tetrahydrofuran annonaceous acetogenins from the seeds of Annona purpurea” (J Nat Prod, 1998).

One series has as its system A498. Put plainly: Cytotoxicity against human A498 cells after 7 days by MTT assay. Type of series: functional. As to conditions: for EC50: Homo sapiens, A498, 168 h, read-out: ED50 (the source's name). On the technique in general: Formazan colour is commonly taken as a measure of viable cells.
In another series the test system is HT-29. Put plainly: Cytotoxicity against human HT-29 cells after 7 days by MTT assay. In kind it is functional. The following applies: for EC50: Homo sapiens, HT-29, 168 h, read-out: ED50 (the source's name).
The subject of the next series is MIA PaCa-2. Briefly: Cytotoxicity against human MIAPaCa2 cells after 7 days by MTT assay. As to conditions: for EC50: Homo sapiens, MIA PaCa-2, 168 h, read-out: ED50 (the source's name). Type of series: functional.
Another series deals with Artemia salina. Put plainly: (§1) Toxicity in Artemia salina. Type of series: organism-based. The following applies: in vivo.
The test system of a further series is MCF7. Briefly: Cytotoxicity against human MCF7 cells after 7 days by MTT assay. In kind it is functional. As to conditions: for EC50: Homo sapiens, MCF7, 168 h, read-out: ED50 (the source's name).
Another series concerns PC-3. Put plainly: Cytotoxicity against human PC3 cells after 7 days by MTT assay. Type of series: functional. The following applies: for EC50: Homo sapiens, PC-3, 168 h, read-out: ED50 (the source's name).
Another series deals with A549. Briefly: Cytotoxicity against human A549 cells after 7 days by MTT assay. Type of series: functional. As to conditions: for EC50: Homo sapiens, A549, 168 h, read-out: ED50 (the source's name).
Series [1] in a line: as §1. Type of series: organism-based. As to conditions: in vivo, read-out: ED50 (the source's name).

Values after ≈ are worked out from the molar mass of the structure shown.

For `CCCCCCCCCC[C@H](O)[C@H]1CC[C@H]([C@H]2CC[C@H]([C@H](O)CCCC[C@H](O)CCCCC[C@@H](O)CC3=C[C@H](C)OC3=O)O2)O1` [ANNOGLAUCIN], the EC50 in the series with A498 is 1.01 µg/mL (≈ 1.58 µM); in the series with MIA PaCa-2, 1.45 µg/mL (≈ 2.27 µM); with MCF7, 1.56 µg/mL (≈ 2.44 µM); with PC-3, 0.356 µg/mL (≈ 0.557 µM); in the series with A549, 1.08 µg/mL (≈ 1.69 µM). In addition, the ED50 with HT-29 is on record as 1 ×10⁻⁷ ug/ml; in the series on Artemia salina it was 2.2 ×10⁻² ug/ml.

For the molecule `CCCCCCCCCCCC[C@@H](O)[C@H]1CC[C@H]([C@H](O)CCCC[C@H](O)CCCCC[C@@H](O)CC2=CC(C)OC2=O)O1` (some centres undefined) [ANNONACIN], the ED50 with A498 is 1.16 µg/mL (≈ 1.94 µM); with HT-29, 1.18 µg/mL (≈ 1.98 µM); in the series with MIA PaCa-2, 1.9 µg/mL (≈ 3.18 µM); with MCF7, 1.96 µg/mL (≈ 3.28 µM); in the series with PC-3, 1.33 µg/mL (≈ 2.23 µM); in the series on A549 it was 1.32 µg/mL (≈ 2.21 µM). Besides, the LC50 in series [1] stood at 0.46 µg/mL (≈ 0.771 µM).

For `COc1cccc2c1C(=O)c1c(O)c3c(c(O)c1C2=O)C[C@@](O)(C(=O)CO)C[C@@H]3O[C@H]1C[C@H](N)[C@H](O)[C@H](C)O1` [DOXORUBICIN], the EC50 amounted to 0.00198 µg/mL (≈ 0.00364 µM) in the series with A498; 0.00966 µg/mL (≈ 0.0178 µM) in the series on HT-29; 0.00145 µg/mL (≈ 0.00267 µM) in the series on MIA PaCa-2; 0.212 µg/mL (≈ 0.39 µM) in the series with MCF7; 0.0227 µg/mL (≈ 0.0418 µM) with PC-3; 0.00367 µg/mL (≈ 0.00675 µM) with A549.

As to `CCCCC[C@H](O)[C@H](O)CCC[C@H](O)[C@H]1CC[C@H]([C@H]2CC[C@H]([C@H](O)CCCCCCCCCCCCC3=C[C@H](C)OC3=O)O2)O1` [PURPUREDIOLIN], the EC50 stood at 1.36 µg/mL (≈ 2.13 µM) in the series with A498; 1.44 µg/mL (≈ 2.25 µM) in the series with MIA PaCa-2; 0.916 µg/mL (≈ 1.43 µM) with MCF7; 0.353 µg/mL (≈ 0.552 µM) with PC-3; 0.443 µg/mL (≈ 0.693 µM) in the series on A549. Besides, the ED50 in the series on HT-29 came to 1 ×10⁻⁷ ug/ml; in the series with Artemia salina it was 7 ×10⁻² ug/ml.

For the molecule `CCCCC[C@H](O)CCCC[C@H](O)[C@H]1CC[C@H]([C@H]2CC[C@H]([C@H](O)CCCC[C@H](O)CCCCCCCC3=C[C@H](C)OC3=O)O2)O1` [PURPURENIN], the EC50 in the series with A498 was found to be 1.25 µg/mL (≈ 1.96 µM); in the series on HT-29 it was 0.316 µg/mL (≈ 0.495 µM); with MIA PaCa-2 it was 1.98 µg/mL (≈ 3.1 µM); in the series on MCF7, 1.67 µg/mL (≈ 2.61 µM); in the series on PC-3, 1.07 µg/mL (≈ 1.67 µM); with A549, 1.29 µg/mL (≈ 2.02 µM). Besides, in the series on Artemia salina, the ED50 is 2.9 ×10⁻² ug/ml.
